Patent US10696611B2, “Adamantane derivative compound” (AMOREPACIFIC CORPORATION, priority 2014, dated 2020)
Where two headings read alike, the source gives them in different places.

Tests used:
mice = experiment: effect of stimulating hair growth in dehaired mice; type: in vivo; conditions: 1.0 wt % in water/ethanol/1,3-butylene glycol, 150 μl/day applied on back for 21 days; newly grown hair
Experimental: To evaluate the adamantane derivatives according to the present disclosure for the effect of stimulating hair growth, each of the adamantane derivatives according to Examples 1-10 is dissolved into a solvent including water/ethanol/1,3-butylene glycol (5/3/2) to a concentration of 1.0 wt %. Next, mice 47-53 days after the birth are dehaired on their backs. Then, mice whose skins on the back portions are clear are selected and grouped by 8 mice per group. Each adamantane derivative having a concentration of 1.0 wt % is applied to each mouse every day in an amount of 150 μl/day for 21 days. After 21 days, newly grown hair is weighed and the weight is compared with negative control.

androgen receptor (AR) = molecular target: T1, androgen receptor (AR) (Homo sapiens, UniProt P10275, T878A); experiment: competitive steroid binding assay ([3H] methyltrienolone displacement)
T1 construct: wild type androgen receptor (AR) is obtained by isolating cytoplasm fraction from LNCaP cell line; host or cells: LNCaP cytoplasm fraction
T1 sequence (P10275 1-920 T878A): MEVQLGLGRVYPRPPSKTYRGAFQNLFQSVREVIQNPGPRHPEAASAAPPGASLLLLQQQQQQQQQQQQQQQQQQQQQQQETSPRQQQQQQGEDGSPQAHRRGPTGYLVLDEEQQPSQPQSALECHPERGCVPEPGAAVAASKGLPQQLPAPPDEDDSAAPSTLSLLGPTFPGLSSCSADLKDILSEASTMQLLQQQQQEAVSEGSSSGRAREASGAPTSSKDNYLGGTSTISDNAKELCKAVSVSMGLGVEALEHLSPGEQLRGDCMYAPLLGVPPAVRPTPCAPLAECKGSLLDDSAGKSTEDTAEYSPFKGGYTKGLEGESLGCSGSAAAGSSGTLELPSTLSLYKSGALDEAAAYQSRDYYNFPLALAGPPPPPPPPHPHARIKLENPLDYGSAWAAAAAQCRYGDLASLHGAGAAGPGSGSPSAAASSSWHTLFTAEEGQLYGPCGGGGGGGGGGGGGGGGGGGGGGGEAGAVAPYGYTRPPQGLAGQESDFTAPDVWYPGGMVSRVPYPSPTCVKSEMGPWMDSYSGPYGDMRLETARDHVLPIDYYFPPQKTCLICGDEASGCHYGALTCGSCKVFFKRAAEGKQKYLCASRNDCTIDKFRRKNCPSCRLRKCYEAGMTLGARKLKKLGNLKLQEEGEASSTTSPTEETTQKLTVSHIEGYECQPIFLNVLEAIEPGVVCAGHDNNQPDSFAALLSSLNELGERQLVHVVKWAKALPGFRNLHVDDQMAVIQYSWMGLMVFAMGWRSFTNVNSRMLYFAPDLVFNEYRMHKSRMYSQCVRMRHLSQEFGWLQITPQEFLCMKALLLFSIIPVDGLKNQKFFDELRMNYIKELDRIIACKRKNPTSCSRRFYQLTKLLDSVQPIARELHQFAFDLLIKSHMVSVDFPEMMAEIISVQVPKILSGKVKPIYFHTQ
Experimental: This assay determines whether or not the adamantane derivative according to the present disclosure is bound to androgen receptor (AR) competitively with methyltrienolone, which is an agonist to androgen receptor.
Such competitive steroid binding assay is carried out by introducing tritium-labeled methyltrienolone as a ligand for androgen receptor, introducing test samples non-labeled with radio isotope thereto at a different concentration, and checking whether or not the test samples are bound to androgen receptor competitively with the ligand, methyltrienolone. In this manner, the test samples are evaluated for their anti-androgenic effects. Herein, the level of the remaining isotope, tritium, is measured to determine whether or not the test samples are bound to androgen receptor competitively with the ligand, methyltrienolone.
Particularly, wild type androgen receptor (AR) is obtained by isolating cytoplasm fraction from LNCaP cell line (ATCC® CRL-1740™). […] The reaction is carried out at 4° C. for 24 hours and the reaction mixture is filtered and washed. Then, radio activity is measured in each ligand bound to the receptor.

[1] = test system: Rat-derived follicle dermal papilla cells; experiment: growth of dermal papilla cells (MTT); type: cell-based; conditions: 10 μg/ml, 48 hours, MTT absorbance at 570 nm relative to DMSO control (100), read-out: Ratio (%) of growth of dermal papilla cells
Experimental: Rat-derived follicle dermal papilla cells cultured in Dulbecco's modified Eagle's media (DMEM) containing 2% of fetal bovine serum are dispensed to a 96-well microtiter plate to 1,000 cells/well. As positive control, minoxidil diluted to a concentration of 10 μg/ml is added. Each of the adamantane derivatives according to Examples 1-10 diluted to a concentration of 10 μg/ml is added, followed by culturing at 37° C. for 48 hours. After culturing, 0.2% 3-[4,5-dimethylthiazol-2-yl]-2,5-diphenyltetrazolium bromide (MTT) solution is added to each well in an amount of 50 μl, followed by culturing at 37° C. for 4 hours. Then, the produced formazane is dissolved with dimethyl sulfoxide (DMSO). A microplate reader is used to determine the absorbance of the dissolved formazane at 570 nm. The absorbance is compared with the absorbance of control treated with DMSO solution alone and the ratio (%) of growth of dermal papilla cells is evaluated based on the relative difference.

[2] = test system: male and female subjects suffering from excessive secretion of sebum; experiment: effect of inhibiting secretion of sebum (Sebumeter SM810); type: in vivo; conditions: nourishing cream including the compound applied every day
Experimental: The following test is carried out to evaluate the adamantane derivatives according to Examples 1-10 for the effect of inhibiting secretion of sebum. Twenty male and female subjects suffering from excessive secretion of sebum are selected and allowed to apply nourishing cream including each of Examples 1-10 and nourishing cream of negative control every day at a predetermined site for 4 weeks. Then, Sebumeter SM810 (C&K Electronic Co., Germany) is used to determine the average ratio (%) of decrease in sebum after 2 weeks and 4 weeks.

[3] = wild type AR from LNCaP cytoplasm fraction, [3H] methyltrienolone, 4° C. for 24 hours

Row | IC50 (androgen receptor (AR); [3]) [nM] | Compound | Hair weight (mice) [mg] | activity at 10 µg/mL [1] [%] | Ratio (%) of decrease in sebum After 2 weeks [2] [%] | Ratio (%) of decrease in sebum After 4 weeks [2] [%] | IC50 (androgen receptor (AR)) [nM]
1 | 13500 | O=C(Nc1cccc([N+](=O)[O-])c1)C12CC3CC(CC(C3)C1)C2 [Example 23, Adamantan-1-carboxylic Acid (3-nitrophenyl)amide] | – | – | – | – | –
2 | 240 | COc1cc(NC(=O)C23CC4CC(CC(C4)C2)C3)ccc1[N+](=O)[O-] [Example 2, Adamantan-1-carboxylic acid-(3-methoxy-4-nitrophenyl)-amide] | 74 ± 9 | 124 | 19.4 | 28.8 | –
3 | 1900 | Cc1cc(C(=O)NC23CC4CC(CC(C4)C2)C3)ccc1[N+](=O)[O-] [Example 7] | 68 ± 8 | 123 | 18.1 | 29.8 | –
4 | 2400 | N#Cc1ccc(NC(=O)C23CC4CC(CC(C4)C2)C3)c(Cl)c1 [Example 6, Adamantan-1-carboxylic acid-(4-cyano-2-chloro-phenyl)-amide] | 67 ± 12 | 124 | 17.4 | 31.4 | –
5 | 5300 | COc1cc(NC(=O)C23CC4CC(CC(C4)C2)C3)ccc1Br [Example 19, Adamantan-1-carboxylic Acid (4-bromo-3-methoxyphenyl)amide] | – | – | – | – | –
6 | 1200 | Cc1cc(NC(=O)C23CC4CC(CC(C4)C2)C3)ccc1[N+](=O)[O-] [Example 1, Adamantan-1-carboxylic acid-(3-methyl-4-nitrophenyl)-amide] | 77 ± 11 | 124 | 21.5 | 35.2 | –
7 | 1200 | COc1cc([N+](=O)[O-])ccc1NC(=O)C12CC3CC(CC(C3)C1)C2 [Example 25, Adamantan-1-carboxylic Acid (2-methoxy-4-nitrophenyl)amide] | – | – | – | – | –
8 | 14800 | COc1cc(NC(=O)C23CC4CC(CC(C4)C2)C3)ccc1F [Example 17, Adamantan-1-carboxylic Acid (4-fluoro-3-methoxyphenyl)amide] | – | – | – | – | –
9 | 1400 | O=C(Nc1ccc([N+](=O)[O-])cc1Cl)C12CC3CC(CC(C3)C1)C2 [Example 4, Adamantan-1-carboxylic acid-(2-chloro-4-nitrophenyl)-amide] | 75 ± 10 | 130 | 20.7 | 29.7 | –
10 | – | Nc1cc(N2CCCCC2)nc(N)[n+]1[O-] [minoxidil, reference compound] | – | 120 | – | – | –
11 | – | N#Cc1ccc(NC(=O)C23CC4CC(CC(C4)C2)C3)cc1C(F)(F)F [Comp. Ex. 1, Adamantan-1-carboxylic acid-(4-cyano-3-trifluoro-phenyl)amide, reference compound] | 59 ± 12 | 114 | 16.5 | 26.2 | 11400
12 | 740 | COc1cc(C(=O)NC23CC4CC(CC(C4)C2)C3)ccc1[N+](=O)[O-] [Example 8] | 70 ± 14 | 125 | 19.8 | 33.7 | –
13 | 2200 | COc1cc(NC(=O)C23CC4CC(CC(C4)C2)C3)ccc1C#N [Example 5, Adamantan-1-carboxylic acid-(4-cyano-3-methoxy-phenyl)-amide] | 71 ± 14 | 145 | 18.7 | 32.8 | –

Row | Compound | IC50 (androgen receptor (AR); [3]) [nM] | Hair weight (mice) [mg] | activity at 10 µg/mL [1] [%] | Ratio (%) of decrease in sebum After 2 weeks [2] [%] | Ratio (%) of decrease in sebum After 4 weeks [2] [%] | IC50 (androgen receptor (AR)) [nM]
14 | O=C(Nc1ccc([N+](=O)[O-])c(Cl)c1)C12CC3CC(CC(C3)C1)C2 [Example 3, Adamantan-1-carboxylic acid-(3-chloro-4-nitrophenyl)-amide] | 440 | 72 ± 6 | 118 | 18.1 | 27.6 | –
